We go through two compounds from publication PMC10518257 (Nature Cancer, 2023).

“And” between values parts separate entries of the source, which are not always exact repeats. Identical values can stand only once.

The test system of one data set is LUAD-0057AS1 PDX. Kind of data set: PDX efficacy study.
The target of the next data set is T1, recombinant human RET (Homo sapiens, UniProt P07949).
T1 construct: purchased Carna Biosciences, Inc (Kobe, Japan)
Kind of data set: RET^WT kinase-inhibition assay (LANCE TR-FRET). The settings on record: 10 μM ATP. Format: biochemical.

For data set [1], the target named is panel of 255 (vepafestinib) or 256 (all other inhibitors) recombinant kinases. Kind of data set: Kinase selectivity profiling at a single concentration (Carna Biosciences). The class given is biochemical. As to conditions: 26 nM, 256 kinases.
For another data set, the target named is T2, KIF5B–RET WT (Homo sapiens, UniProt P07949).
T2 construct: Fusion of the RET kinase domain with several N-terminal partners such as kinesin family 5B (KIF5B); KIF5B (N-terminal fusion partner); expressed in transfected cells; host or cells: Jump-In GripTite HEK293 (transient, pJTI Fast-based vector)
T2 sequence (P07949 713-1063 limits assumed): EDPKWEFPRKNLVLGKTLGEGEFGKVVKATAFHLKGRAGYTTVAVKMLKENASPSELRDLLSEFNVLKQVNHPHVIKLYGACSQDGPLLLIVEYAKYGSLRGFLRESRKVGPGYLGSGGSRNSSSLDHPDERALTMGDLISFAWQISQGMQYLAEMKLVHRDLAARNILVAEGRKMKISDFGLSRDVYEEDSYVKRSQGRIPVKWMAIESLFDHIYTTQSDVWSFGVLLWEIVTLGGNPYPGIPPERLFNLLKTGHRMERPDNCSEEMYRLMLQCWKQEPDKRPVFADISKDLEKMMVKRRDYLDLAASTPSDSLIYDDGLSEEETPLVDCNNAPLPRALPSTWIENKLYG
Kind of data set: In-cell western assay of RET autophosphorylation. Format: cell-based. The settings on record: Jump-In GripTite HEK293, 1 h, phospho-RET (Y905)/RET.

Another data set concerns the target T3, KIF5B–RET L730Q (Homo sapiens, UniProt P07949, L730Q).
T3 construct: Fusion of the RET kinase domain with several N-terminal partners such as kinesin family 5B (KIF5B); KIF5B (N-terminal fusion partner); expressed in transfected cells; host or cells: Jump-In GripTite HEK293 (transient)
Kind of data set: In-cell western assay of RET autophosphorylation. Format: cell-based. The settings on record: Jump-In GripTite HEK293 cells, one hour; Mean.

In the next data set the target is T4, KIF5B–RET L730R (Homo sapiens, UniProt P07949, L730R).
T4 construct: Fusion of the RET kinase domain with several N-terminal partners such as kinesin family 5B (KIF5B); KIF5B (N-terminal fusion partner); expressed in transfected cells; host or cells: Jump-In GripTite HEK293 (transient)
T4 sequence (P07949 713-1063 L730R limits assumed): as the sequence (P07949 713-1063 limits assumed) above, with L18R counted along it
Kind of data set: In-cell western assay of RET autophosphorylation. Format: cell-based. The settings on record: Jump-In GripTite HEK293 cells, one hour; Mean.

The next data set deals with T5, KIF5B–RET E732K (Homo sapiens, UniProt P07949, E732K).
T5 construct: Fusion of the RET kinase domain with several N-terminal partners such as kinesin family 5B (KIF5B); KIF5B (N-terminal fusion partner); expressed in transfected cells; host or cells: Jump-In GripTite HEK293 (transient)
T5 sequence (P07949 713-1063 E732K limits assumed): as the sequence (P07949 713-1063 limits assumed) above, with E20K counted along it
Kind of data set: In-cell western assay of RET autophosphorylation. The settings on record: Jump-In GripTite HEK293 cells, one hour; Mean. Format: cell-based.

A further data set concerns the target T6, KIF5B–RET G736A (Homo sapiens, UniProt P07949, G736A).
T6 construct: Fusion of the RET kinase domain with several N-terminal partners such as kinesin family 5B (KIF5B); KIF5B (N-terminal fusion partner); expressed in transfected cells; host or cells: Jump-In GripTite HEK293 (transient)
In words: In-cell western assay of RET autophosphorylation. Format: cell-based. The settings on record: Jump-In GripTite HEK293 cells, one hour; Mean.

The next data set addresses T7, KIF5B–RET M759I (Homo sapiens, UniProt P07949, M759I).
T7 construct: Fusion of the RET kinase domain with several N-terminal partners such as kinesin family 5B (KIF5B); KIF5B (N-terminal fusion partner); expressed in transfected cells; host or cells: Jump-In GripTite HEK293 (transient)
In words: In-cell western assay of RET autophosphorylation. The class given is cell-based. The settings on record: Jump-In GripTite HEK293 cells, one hour; Mean (TPX-0046: the three replicates).

In a further data set the target is T8, KIF5B–RET L760Q (Homo sapiens, UniProt P07949, L760Q).
T8 construct: Fusion of the RET kinase domain with several N-terminal partners such as kinesin family 5B (KIF5B); KIF5B (N-terminal fusion partner); expressed in transfected cells; host or cells: Jump-In GripTite HEK293 (transient)
T8 sequence (P07949 713-1063 L760Q limits assumed): as the sequence (P07949 713-1063 limits assumed) above, with L48Q counted along it
Kind of data set: In-cell western assay of RET autophosphorylation. The class given is cell-based. As to conditions: Jump-In GripTite HEK293 cells, one hour; Mean.

The next data set has as its target T9, KIF5B–RET E768Q (Homo sapiens, UniProt P07949, E768Q).
T9 construct: Fusion of the RET kinase domain with several N-terminal partners such as kinesin family 5B (KIF5B); KIF5B (N-terminal fusion partner); expressed in transfected cells; host or cells: Jump-In GripTite HEK293 (transient)
In words: In-cell western assay of RET autophosphorylation. The class given is cell-based. As to conditions: Jump-In GripTite HEK293 cells, one hour; Mean.

The next data set deals with T10, KIF5B–RET L772M (Homo sapiens, UniProt P07949, L772M).
T10 construct: Fusion of the RET kinase domain with several N-terminal partners such as kinesin family 5B (KIF5B); KIF5B (N-terminal fusion partner); expressed in transfected cells; host or cells: Jump-In GripTite HEK293 (transient)
T10 sequence (P07949 713-1063 L772M limits assumed): as the sequence (P07949 713-1063 limits assumed) above, with L60M counted along it
In words: In-cell western assay of RET autophosphorylation. As to conditions: Jump-In GripTite HEK293 cells, one hour; Mean. Format: cell-based.

The target of another data set is T11, KIF5B–RET I788N (Homo sapiens, UniProt P07949, I788N).
T11 construct: Fusion of the RET kinase domain with several N-terminal partners such as kinesin family 5B (KIF5B); KIF5B (N-terminal fusion partner); expressed in transfected cells; host or cells: Jump-In GripTite HEK293 (transient)
T11 sequence (P07949 713-1063 I788N limits assumed): as the sequence (P07949 713-1063 limits assumed) above, with I76N counted along it
In words: In-cell western assay of RET autophosphorylation. The class given is cell-based. The settings on record: Jump-In GripTite HEK293 cells, one hour; Mean.

The target of the next data set is T12, KIF5B–RET Y806C (Homo sapiens, UniProt P07949, Y806C).
T12 construct: Fusion of the RET kinase domain with several N-terminal partners such as kinesin family 5B (KIF5B); KIF5B (N-terminal fusion partner); expressed in transfected cells; host or cells: Jump-In GripTite HEK293 (transient)
T12 sequence (P07949 713-1063 Y806C limits assumed): as the sequence (P07949 713-1063 limits assumed) above, with Y94C counted along it
In words: In-cell western assay of RET autophosphorylation. The settings on record: Jump-In GripTite HEK293 cells, one hour; Mean. Format: cell-based.

For a further data set, the target named is T13, KIF5B–RET G810A (Homo sapiens, UniProt P07949, G810A).
T13 construct: Fusion of the RET kinase domain with several N-terminal partners such as kinesin family 5B (KIF5B); KIF5B (N-terminal fusion partner); expressed in transfected cells; host or cells: Jump-In GripTite HEK293 (transient)
T13 sequence (P07949 713-1063 G810A limits assumed): as the sequence (P07949 713-1063 limits assumed) above, with G98A counted along it
Kind of data set: In-cell western assay of RET autophosphorylation. The class given is cell-based. As to conditions: Jump-In GripTite HEK293 cells, one hour; Mean.

A further data set has as its target T14, KIF5B–RET G810C (Homo sapiens, UniProt P07949, G810C).
T14 construct: Fusion of the RET kinase domain with several N-terminal partners such as kinesin family 5B (KIF5B); KIF5B (N-terminal fusion partner); expressed in transfected cells; host or cells: Jump-In GripTite HEK293 (transient)
Kind of data set: In-cell western assay of RET autophosphorylation. The class given is cell-based. The settings on record: Jump-In GripTite HEK293 cells, one hour; Mean.

In another data set the target is T15, KIF5B–RET G810D (Homo sapiens, UniProt P07949, G810D).
T15 construct: Fusion of the RET kinase domain with several N-terminal partners such as kinesin family 5B (KIF5B); KIF5B (N-terminal fusion partner); expressed in transfected cells; host or cells: Jump-In GripTite HEK293 (transient)
T15 sequence (P07949 713-1063 G810D limits assumed): as the sequence (P07949 713-1063 limits assumed) above, with G98D counted along it
In words: In-cell western assay of RET autophosphorylation. The class given is cell-based. As to conditions: Jump-In GripTite HEK293 cells, one hour; Mean.

Another data set deals with T16, KIF5B–RET G810S (Homo sapiens, UniProt P07949, G810S).
T16 construct: Fusion of the RET kinase domain with several N-terminal partners such as kinesin family 5B (KIF5B); KIF5B (N-terminal fusion partner); expressed in transfected cells; host or cells: Jump-In GripTite HEK293 (transient)
T16 sequence (P07949 713-1063 G810S limits assumed): as the sequence (P07949 713-1063 limits assumed) above, with G98S counted along it
Kind of data set: In-cell western assay of RET autophosphorylation. The class given is cell-based. As to conditions: Jump-In GripTite HEK293 cells, one hour; Mean.

In a further data set the target is T17, KIF5B–RET G810R (Homo sapiens, UniProt P07949, G810R).
T17 construct: Fusion of the RET kinase domain with several N-terminal partners such as kinesin family 5B (KIF5B); KIF5B (N-terminal fusion partner); expressed in transfected cells; host or cells: Jump-In GripTite HEK293 (transient)
T17 sequence (P07949 713-1063 G810R limits assumed): as the sequence (P07949 713-1063 limits assumed) above, with G98R counted along it
In words: In-cell western assay of RET autophosphorylation. The class given is cell-based. The settings on record: Jump-In GripTite HEK293, 1 h, phospho-RET (Y905)/RET.

Another data set in a line: in vivo. As to conditions: male, BALB/c, mouse, brain and plasma, po, 50 mg/kg, Kp,uu,brain (unbound brain/plasma concentration ratio), male BALB/c mice, 50 mg per kg oral, 0.5 h or 1 h.

T7 sequence (P07949 713-1063 M759I limits assumed): as the sequence (P07949 713-1063 limits assumed) above, with M47I counted along it
T3 sequence (P07949 713-1063 L730Q limits assumed): as the sequence (P07949 713-1063 limits assumed) above, with L18Q counted along it
T14 sequence (P07949 713-1063 G810C limits assumed): as the sequence (P07949 713-1063 limits assumed) above, with G98C counted along it
T1 sequence (P07949 29-1114): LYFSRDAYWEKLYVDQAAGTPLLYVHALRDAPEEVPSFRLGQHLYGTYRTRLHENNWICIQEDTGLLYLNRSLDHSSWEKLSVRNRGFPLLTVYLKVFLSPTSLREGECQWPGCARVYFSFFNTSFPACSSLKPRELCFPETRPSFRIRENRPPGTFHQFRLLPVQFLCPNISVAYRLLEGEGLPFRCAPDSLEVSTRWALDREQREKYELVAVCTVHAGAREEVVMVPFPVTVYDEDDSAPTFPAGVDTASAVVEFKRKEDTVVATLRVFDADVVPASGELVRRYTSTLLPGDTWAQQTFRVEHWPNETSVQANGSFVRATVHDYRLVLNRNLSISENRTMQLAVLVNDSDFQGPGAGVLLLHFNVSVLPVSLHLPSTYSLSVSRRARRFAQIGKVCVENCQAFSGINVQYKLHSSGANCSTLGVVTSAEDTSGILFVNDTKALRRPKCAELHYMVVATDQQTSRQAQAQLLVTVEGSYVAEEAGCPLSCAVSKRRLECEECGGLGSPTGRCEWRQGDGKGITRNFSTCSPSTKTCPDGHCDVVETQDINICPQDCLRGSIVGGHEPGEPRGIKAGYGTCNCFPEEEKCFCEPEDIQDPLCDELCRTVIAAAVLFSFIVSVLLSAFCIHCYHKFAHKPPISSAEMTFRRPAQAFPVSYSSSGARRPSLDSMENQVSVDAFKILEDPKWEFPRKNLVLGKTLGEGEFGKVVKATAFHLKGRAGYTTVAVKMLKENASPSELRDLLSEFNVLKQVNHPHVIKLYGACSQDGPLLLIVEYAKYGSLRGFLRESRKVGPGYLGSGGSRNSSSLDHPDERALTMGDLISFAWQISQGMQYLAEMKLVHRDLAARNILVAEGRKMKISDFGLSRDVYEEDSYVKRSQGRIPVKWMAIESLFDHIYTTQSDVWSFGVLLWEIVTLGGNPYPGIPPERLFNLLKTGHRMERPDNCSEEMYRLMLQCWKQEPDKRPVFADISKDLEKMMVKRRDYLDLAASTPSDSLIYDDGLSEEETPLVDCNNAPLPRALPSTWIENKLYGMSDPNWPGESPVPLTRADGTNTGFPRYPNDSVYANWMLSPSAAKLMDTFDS
T9 sequence (P07949 713-1063 E768Q limits assumed): as the sequence (P07949 713-1063 limits assumed) above, with E56Q counted along it
T6 sequence (P07949 713-1063 G736A limits assumed): as the sequence (P07949 713-1063 limits assumed) above, with G24A counted along it

For the compound `COc1cc2nccc(Oc3ccc(NC(=O)C4(C(=O)Nc5ccc(F)cc5)CC4)cc3)c2cc1OC` [Cabozantinib], the tumor shrinkage entry in the data set with LUAD-0057AS1 PDX (30 mg per kg QD) is reported as “did not lead to any tumor shrinkage”. Also, in the data set on LUAD-0057AS1 PDX (30 mg/kg QD), the “Area Under Curve of tumor growth, Mean” value worked out at 1051. Further, the Tumor volume was 139.24 mm3 and 130.83 mm3 and 132.84 mm3 and 134.85 mm3 and 137.16 mm3 and 136.86 mm3 and 128.59 mm3 (2×) with LUAD-0057AS1 PDX (30 mg/kg QD, day 0, individual animals); 143.69 mm3 (2×) and 141.55 mm3 and 159.83 mm3 and 157.37 mm3 and 161.94 mm3 and 155.09 mm3 and 150.43 mm3 in the data set on LUAD-0057AS1 PDX (30 mg/kg QD, day 3, individual animals); 150.13 mm3 and 145.84 mm3 and 157.07 mm3 and 171.9 mm3 and 159.66 mm3 and 132.84 mm3 and 161.94 mm3 and 154.85 mm3 with LUAD-0057AS1 PDX (30 mg/kg QD, day 7, individual animals); 150.13 mm3 and 154.85 mm3 (2×) and 171.06 mm3 and 197.55 mm3 and 217.15 mm3 and 132.84 mm3 and 165.92 mm3 with LUAD-0057AS1 PDX (30 mg/kg QD, day 10, individual animals); 150.13 mm3 and 176.28 mm3 and 188.03 mm3 (3×) and 224.35 mm3 and 288.71 mm3 and 168.78 mm3 in the data set on LUAD-0057AS1 PDX (30 mg/kg QD, day 14, individual animals); 150.13 mm3 and 183.33 mm3 and 195.09 mm3 and 204.49 mm3 and 294.92 mm3 and 176.28 mm3 and 193.69 mm3 and 188.03 mm3 in the data set on LUAD-0057AS1 PDX (30 mg/kg QD, day 19, individual animals). Moreover, the Tumor volume with LUAD-0057AS1 PDX (30 mg/kg QD, day 23, individual animals) was 194.67 mm3 and 219.37 mm3 and 246.79 mm3 and 251.12 mm3 and 340.1 mm3 and 242.75 mm3 and 230.72 mm3 and 228.34 mm3. Moreover, the “Change in Tumor Volume” value in the data set with LUAD-0057AS1 PDX (30 mg/kg QD, end of study, individual tumors) was 39.809% and 67.6756% and 85.7799% and 86.2217% and 147.959% and 77.371% and 79.423% and 77.5721%.

By IC50 is commonly meant the concentration that gives 50% inhibition. Regarding `C[C@H]1CNC(=O)c2cnn3cc4c(nc23)N(Cc2cc(F)cnc2O1)[C@@H]1CCC[C@@H]1O4` [TPX-0046], the IC50 came out at 0.26 ± 0.02 nM at recombinant human RET; 21.9 nM on KIF5B–RET WT; 16.6 nM against KIF5B–RET L730Q; 4.49 nM on KIF5B–RET L730R; 14.7 nM against KIF5B–RET E732K; 3.21 nM against KIF5B–RET G736A. For the same compound, the half-maximal inhibitory concentration (IC50) against KIF5B–RET M759I is < 1 nM and 1.2 nM and 1.72 nM; at KIF5B–RET L760Q it was 5.35 nM; against KIF5B–RET E768Q, 4.05 nM; at KIF5B–RET L772M, 2.69 nM; on KIF5B–RET I788N, 50.6 nM; at KIF5B–RET Y806C, 50 nM. The half-inhibitory concentration (IC50) on KIF5B–RET G810A stood at 6.53 nM; at KIF5B–RET G810C it was 36.1 nM; against KIF5B–RET G810D, 57.9 nM; against KIF5B–RET G810S it was 5.87 nM; against KIF5B–RET G810R, 108 nM. Besides, in data set [1], the “kinases inhibited by >50%” value is given as 39. Further, the Kp uu in “in vivo” is 0.077.
